Literature values in article PMC10842190 (ACS sensors, 2023).

How the values were obtained:
[1] = test system: damaged collagen triple helices

| Compound | Toxicity to human cells (human cells) | Annealing to damaged collagen triple helices [1] |
| --- | --- | --- |
| O=C(O)[C@@H]1C[C@H](F)CN1 [H-flp-OH, (2S,4S)-4-fluoroproline] | not toxic |  |
| (Gly-Ser)2-Gly-(Hyp-flp-Gly)7 |  | cannot anneal |
| (Gly-Ser)2-Gly-(flp-Hyp-Gly)7 |  | can anneal |
